# According to US8530513B1, “Pharmaceutical uses of diterpene excavatolide B from a coral or an analogue thereof” (National Sun Yat-Sen University, priority 2012, dated 2013):
# Experiments:
# Assay type in all cases: in vivo
# iNOS = assay: TPA-induced iNOS expression in mouse skin, immunohistochemical staining; details: topical for 6 h after TPA, anti-iNOS immunostaining
# Experimental: Mice were treated or not treated topically on their shaven abdomens with acetone (vehicle only) or TPA (10 nmol in 200 μl acetone/site) for 6 h or treated first with TPA for 10 min, then with the indicated concentrations of BrD1 for 6 h. Mice were killed by cervical dislocation. Abdominal skin tissues were collected, fixed with formalin buffer and embedded in paraffin. Tissue sections ([…]) were cut and laid onto silanized glass slides and deparaffinized three times with xylene for 5 min each prior to rehydration using a graded alcohol bath. For hematoxyline and eosin staining, the sections were stained with hematoxyline and eosin staining. For immunohistochemical staining, the deparaffinized sections were boiled in 10 mM citrate buffer (pH 6.0) for 10 min for antigen retrieval and rinsed with PBS containing 0.05% Tween-20 buffer for 5 min. The sections were treated with 3% hydrogen peroxide in methanol for 15 min to decrease non-specific binding. They were subsequently washed with blocking solution (PBS containing 1% BSA) for 30 min and then PBST twice for 5 min. All slides were incubated first with 2% goat serum in blocking solution for 30 min, then with a 1:200 dilution of polyclonal iNOS antibody (eBioscience, San Diego, Calif.) at room temperature for 1 h. […] Subsequently, peroxidase-binding sites were determined by staining with 3,3′-diaminobenzidine tetrahydrochloride (Dako). […]
# Akt = assay: TPA-stimulated Akt phosphorylation in mouse skin, western blot; details: topical for 2 h after TPA
# Experimental: (§1) Shaven abdominal skins of female C57BL/6JNarl mice were not treated or topically treated with vehicle (acetone, 200 μl/site) or TPA (10 nmol in 200 μl acetone/site) at indicated time points or treated first with TPA for 10 min, then with the indicated concentrations of BrD1 at the indicated time points. Abdominal skin samples were collected, homogenated and lysed to prepare total proteins. Protein samples were subsequently resolved by SDS-PAGE using a gradient gel. The resolved proteins were transferred to a PVDF Immobilon-P membrane (Millipore, Bedford, Calif.), and the membrane was blocked with 5% non-fat dry milk in PBST buffer (phosphate-buffered saline (PBS) containing 0.1% Tween 20) for 60 minutes at room temperature. The membranes were incubated overnight at 4° C. with commercially available antibodies (1:1000 dilutions). Loading of equal amounts of protein was assessed using mouse β-actin. The blots were rinsed three times with PBST buffer for 5 minutes. Washed blots were incubated with HRP-conjugated secondary antibody (1:100,000 dilution), then washed again three times with PBST buffer. […] Quantification of bands was performed using Image J software.
# (§2) We therefore evaluated whether BrD1 could interfere with TPA-induced activation of Akt and Erk in inflamed skin. […] We thus determined the phosphorylation level of Akt, Erk, NF-κB and IκBα in skins subjected to different treatments. […]
# IκBα = assay: TPA-stimulated IκBα phosphorylation in mouse skin, western blot; details: topical for 2 h after TPA
# Experimental: as §1, §2
smiles,measurement,setting,value
"CCCC(=O)O[C@H]1C/C(C)=C\[C@@H]2OC(=O)[C@]3(C)O[C@]23[C@@H](OC(C)=O)[C@H]2[C@@H](C)[C@@H](O)C[C@H](OC(C)=O)[C@]2(C)[C@H]1OC(C)=O [BrD1, excavatolide B]",TPA-induced iNOS expression,iNOS,markedly reduced the TPA-induced iNOS expression in the epidermal and dermal layers
same,TPA-induced iNOS expression,iNOS; listed as excavatolide B,markedly reduces the TPA-induced iNOS expression in the epidermal and dermal layers
same,TPA-stimulated phosphorylation of Akt,Akt,significantly inhibited the TPA-stimulated phosphorylation of Akt
same,TPA-stimulated phosphorylation of Akt,Akt; listed as excavatolide B,significantly inhibits the TPA-stimulated phosphorylation of Akt
same,TPA-stimulated phosphorylation of IκBα,IκBα,significantly inhibited the TPA-stimulated phosphorylation of Akt and IκBα
same,TPA-stimulated phosphorylation of IκBα,IκBα; listed as excavatolide B,significantly inhibits the TPA-stimulated phosphorylation of Akt and IκBα
